#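 Values below derive from 48-hour exposures of cells grown in 96-well plates, with endpoints linearly interpolated between the two concentrations bracketing the appropriate inhibition level. The concentration for 50% growth inhibition is given as GI50. TGI: concentration producing complete growth inhibition.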
# How the values were obtained:
# Assay in all cases: growth of human tumour cells (NCI), 48 h
# [1] = test system: 786-0 renal
# [2] = test system: A498 renal
# [3] = test system: A549 NSCLC
# [4] = test system: ACHN renal
# [5] = test system: BT-549 breast
# [6] = test system: CAKI-1 renal
# [7] = test system: CCRF-CEM leukemia
# [8] = test system: COLO 205 colon
# [9] = test system: DU-145 prostate
# [10] = test system: HCC-2998 colon
# [11] = test system: HCT-116 colon
# [12] = test system: HCT-15 colon
# [13] = test system: HL-60(TB) leukemia
# [14] = test system: HOP-62 NSCLC
# [15] = test system: HS 578T breast
# [16] = test system: HT29 colon
# [17] = test system: IGROV1 ovarian
# [18] = test system: K-562 leukemia
# [19] = test system: KM12 colon
# [20] = test system: LOX IMVI melanoma
# [21] = test system: M14 melanoma
# [22] = test system: MALME-3M melanoma
# [23] = test system: MCF7 breast
# [24] = test system: MDA-MB-231 breast
# [25] = test system: MDA-MB-435
# [26] = test system: MOLT-4 leukemia
# [27] = test system: NCI-H226 lung
# [28] = test system: NCI-H23 lung
# [29] = test system: NCI-H460 lung
# [30] = test system: NCI-H522 lung
# [31] = test system: NCI/ADR-RES ovarian
# [32] = test system: OVCAR-3 ovarian
# [33] = test system: OVCAR-4 ovarian
# [34] = test system: OVCAR-5 ovarian
# [35] = test system: OVCAR-8 ovarian
# [36] = test system: PC-3 prostate
# [37] = test system: RPMI-8226 leukemia
# [38] = test system: RXF 393 renal
# [39] = test system: SF-268 CNS
# [40] = test system: SF-295 CNS
# [41] = test system: SF-539 CNS
# [42] = test system: SK-MEL-2 melanoma
# [43] = test system: SK-MEL-28 melanoma
# [44] = test system: SK-MEL-5 melanoma
# [45] = test system: SK-OV-3 ovarian
# [46] = test system: SN12C renal
# [47] = test system: SNB-19 CNS
# [48] = test system: SNB-75 CNS
# [49] = test system: SR leukemia
# [50] = test system: SW-620 colon
# [51] = test system: T-47D breast
# [52] = test system: U251 CNS
# [53] = test system: UACC-257 melanoma
# [54] = test system: UACC-62 melanoma
# [55] = test system: UO-31 renal
# [56] = test system: EKVX NSCLC
# [57] = test system: HOP-92 NSCLC
# [58] = test system: TK-10 renal
smiles,measurement,setting,value
Cc1nn(-c2ccccc2)c2c1C1C(=C(c3ccc(Cl)cc3)N2)C(=O)Nc2ccccc21 (stereo not given),GI50,[1],3.97 µM
same,TGI,[1],31 µM
same,GI50,[2],4.01 µM
same,TGI,[2],26.4 µM
same,GI50,[3],3.12 µM
same,TGI,[3],> 100 µM
same,GI50,[4],3.51 µM
same,TGI,[4],> 100 µM
same,GI50,[5],2.81 µM
same,TGI,[5],9.32 µM
same,GI50,[6],3.04 µM
same,TGI,[6],> 100 µM
same,GI50,[7],2.66 µM
same,TGI,[7],8.67 µM
same,GI50,[8],2.49 µM
same,TGI,[8],5.63 µM
same,GI50,[9],7.01 µM
same,TGI,[9],> 100 µM
same,GI50,[10],3.43 µM
same,TGI,[10],10.6 µM
same,GI50,[11],3.55 µM
same,TGI,[11],14.4 µM
same,GI50,[12],3 µM
same,TGI,[12],18.6 µM
same,GI50,[13],2.25 µM
same,TGI,[13],5.25 µM
same,GI50,[14],9.88 µM
same,TGI,[14],> 100 µM
same,GI50,[15],8.59 µM
same,TGI,[15],> 100 µM
same,GI50,[16],2.89 µM
same,TGI,[16],8.61 µM
same,GI50,[17],3.82 µM
same,TGI,[17],60.2 µM
same,GI50,[18],3.33 µM
same,TGI,[18],46.7 µM
same,GI50,[19],3.6 µM
same,TGI,[19],20.8 µM
same,GI50,[20],3.54 µM
same,TGI,[20],12 µM
same,GI50,[21],3.26 µM
same,TGI,[21],15.2 µM
same,GI50,[22],2.68 µM
same,TGI,[22],21.2 µM
same,GI50,[23],3.16 µM
same,TGI,[23],> 100 µM
same,GI50,[24],2.41 µM
same,TGI,[24],8.74 µM
same,GI50,[25],3.26 µM
same,TGI,[25],17.2 µM
same,GI50,[26],2.85 µM
same,TGI,[26],8.9 µM
same,GI50,[27],7.34 µM
same,TGI,[27],36 µM
same,GI50,[28],4.46 µM
same,TGI,[28],47.9 µM
same,GI50,[29],3.17 µM
same,TGI,[29],10.2 µM
same,GI50,[30],1.78 µM
same,TGI,[30],3.86 µM
same,GI50,[31],4.32 µM
same,TGI,[31],> 100 µM
same,GI50,[32],4.39 µM
same,TGI,[32],20.3 µM
same,GI50,[33],5.33 µM
same,TGI,[33],> 100 µM
same,GI50,[34],2.27 µM
same,TGI,[34],7.68 µM
same,GI50,[35],3.26 µM
same,TGI,[35],67 µM
same,GI50,[36],2.65 µM
same,TGI,[36],13.1 µM
same,GI50,[37],2.17 µM
same,TGI,[37],4.77 µM
same,GI50,[38],2.19 µM
same,TGI,[38],6.7 µM
same,GI50,[39],5.17 µM
same,TGI,[39],> 100 µM
same,GI50,[40],2.49 µM
same,TGI,[40],7.77 µM
same,GI50,[41],3.15 µM
same,TGI,[41],12.9 µM
same,GI50,[42],1.87 µM
same,TGI,[42],4.29 µM
same,GI50,[43],4.65 µM
same,TGI,[43],62.1 µM
same,GI50,[44],1.88 µM
same,TGI,[44],4.31 µM
same,GI50,[45],6.43 µM
same,TGI,[45],> 100 µM
same,GI50,[46],4.96 µM
same,TGI,[46],32.2 µM
same,GI50,[47],5.28 µM
same,TGI,[47],> 100 µM
same,GI50,[48],3.9 µM
same,TGI,[48],96.3 µM
same,GI50,[49],2.15 µM
same,TGI,[49],5.58 µM
same,GI50,[50],4.16 µM
same,TGI,[50],> 100 µM
same,GI50,[51],4.33 µM
same,TGI,[51],38.5 µM
same,GI50,[52],2.98 µM
same,TGI,[52],12.3 µM
same,GI50,[53],4.33 µM
same,TGI,[53],25.4 µM
same,GI50,[54],3.56 µM
same,TGI,[54],15 µM
same,GI50,[55],2.86 µM
same,TGI,[55],30.3 µM
O=c1oc(-c2ccc(O)c(O)c2)cc2cc(O)cc(O)c12,GI50,[1],39.6 µM
same,TGI,[1],> 100 µM
same,GI50,[2],27.3 µM
same,TGI,[2],56.7 µM
same,GI50,[3],34.1 µM
same,TGI,[3],> 100 µM
same,GI50,[4],45.3 µM
same,TGI,[4],> 100 µM
same,GI50,[5],26.2 µM
same,TGI,[5],84.8 µM
same,GI50,[6],33.6 µM
same,TGI,[6],> 100 µM
same,GI50,[7],3.39 µM
same,TGI,[7],> 100 µM
same,GI50,[8],41.8 µM
same,TGI,[8],> 100 µM
same,GI50,[9],32.4 µM
same,TGI,[9],> 100 µM
same,GI50,[56],28.4 µM
same,TGI,[56],91.3 µM
same,GI50,[10],36.6 µM
same,TGI,[10],57.7 µM
same,GI50,[11],29.8 µM
same,TGI,[11],> 100 µM
same,GI50,[12],57.1 µM
same,TGI,[12],> 100 µM
same,GI50,[14],33 µM
same,TGI,[14],90.4 µM
same,GI50,[57],25.5 µM
same,TGI,[57],> 100 µM
same,GI50,[15],39.5 µM
same,TGI,[15],94.4 µM
same,GI50,[16],71.5 µM
same,TGI,[16],> 100 µM
same,GI50,[17],2.19 µM
same,TGI,[17],43.2 µM
same,GI50,[18],41.6 µM
same,TGI,[18],> 100 µM
same,GI50,[19],28.6 µM
same,TGI,[19],> 100 µM
same,GI50,[20],60.8 µM
same,TGI,[20],> 100 µM
same,GI50,[21],33.2 µM
same,TGI,[21],93.9 µM
same,GI50,[22],57.5 µM
same,TGI,[22],> 100 µM
same,GI50,[23],42.7 µM
same,TGI,[23],> 100 µM
same,GI50,[24],44.7 µM
same,TGI,[24],> 100 µM
same,GI50,[25],33 µM
same,TGI,[25],> 100 µM
same,GI50,[26],22.4 µM
same,TGI,[26],> 100 µM
same,GI50,[28],35.2 µM
same,TGI,[28],> 100 µM
same,GI50,[29],31 µM
same,TGI,[29],> 100 µM
same,GI50,[30],27.3 µM
same,TGI,[30],> 100 µM
same,GI50,[31],33.5 µM
same,TGI,[31],> 100 µM
same,GI50,[32],35.3 µM
same,TGI,[32],> 100 µM
same,GI50,[33],76.6 µM
same,TGI,[33],> 100 µM
same,GI50,[34],36.7 µM
same,TGI,[34],> 100 µM
same,GI50,[35],42.1 µM
same,TGI,[35],> 100 µM
same,GI50,[36],31.6 µM
same,TGI,[36],> 100 µM
same,GI50,[37],20.8 µM
same,TGI,[37],> 100 µM
same,GI50,[38],35.9 µM
same,TGI,[38],> 100 µM
same,GI50,[39],32.4 µM
same,TGI,[39],> 100 µM
same,GI50,[40],43.7 µM
same,TGI,[40],> 100 µM
same,GI50,[41],26.7 µM
same,TGI,[41],91.5 µM
same,GI50,[42],74.4 µM
same,TGI,[42],> 100 µM
same,GI50,[43],39.5 µM
same,TGI,[43],> 100 µM
same,GI50,[44],18 µM
same,TGI,[44],42.2 µM
same,GI50,[45],> 100 µM
same,TGI,[45],> 100 µM
same,GI50,[46],43 µM
same,TGI,[46],> 100 µM
same,GI50,[47],56.3 µM
same,TGI,[47],> 100 µM
same,GI50,[49],8.26 µM
same,TGI,[49],> 100 µM
same,GI50,[50],35.2 µM
same,TGI,[50],> 100 µM
same,GI50,[51],54.5 µM
same,TGI,[51],> 100 µM
same,GI50,[58],30.5 µM
same,TGI,[58],> 100 µM
same,GI50,[52],48.5 µM
same,TGI,[52],> 100 µM
same,GI50,[53],38 µM
same,TGI,[53],> 100 µM
same,GI50,[54],33.8 µM
same,TGI,[54],> 100 µM
same,GI50,[55],18.5 µM
same,TGI,[55],> 100 µM

# From PubChem BioAssay (NCI)
